Key:
[1] = xn = mol fraction of the nth substance listed; settings: for surface tension liquid-gas: surface light scattering; for kinematic viscosity: 101 kPa, Liquid, Surface laser light scattering (SLLS)
[2] = for surface tension liquid-gas: surface light scattering; for kinematic viscosity: 101.33 kPa, Liquid, Surface laser light scattering (SLLS)

C=C(F)C(F)(F)F [2,3,3,3-tetrafluoro-1-propene] + FCF
[1]
Settings	kinematic viscosity [m2/s]	surface tension liquid-gas [mN/m]
293.15 K, x2 = 0.7945	1.28e-07	7.04
293.16 K, x2 = 0.5193	1.31e-07	6.55
293.21 K, x2 = 0.6988	1.28e-07	6.9
303.14 K, x2 = 0.7945	1.18e-07	5.57
303.16 K, x2 = 0.5193	1.2e-07	5.29
303.2 K, x2 = 0.6988	1.19e-07	5.49
313.14 K, x2 = 0.5193	1.09e-07	4.1
313.21 K, x2 = 0.6988	1.09e-07	4.1
313.26 K, x2 = 0.7945	1.08e-07	4.14
323.17 K, x2 = 0.5193	1.01e-07	2.96
323.19 K, x2 = 0.6988	9.91e-08	2.82
323.2 K, x2 = 0.7945	9.82e-08	2.83
333.14 K, x2 = 0.5193	9.15e-08	1.91
333.21 K, x2 = 0.6988	8.98e-08	1.66
333.21 K, x2 = 0.7945	8.85e-08	1.62
343.14 K, x2 = 0.5193	8.18e-08	0.97
343.16 K, x2 = 0.6988	7.93e-08	0.66
343.18 K, x2 = 0.7945	7.71e-08	0.59

F/C=C/C(F)(F)F [trans-1,3,3,3-tetrafluoropropene] + FCF
[1]
Settings	kinematic viscosity, x2 = 0.2985 [m2/s]	kinematic viscosity, x2 = 0.5697 [m2/s]	kinematic viscosity, x2 = 0.7501 [m2/s]	surface tension liquid-gas, x2 = 0.2985 [mN/m]	surface tension liquid-gas, x2 = 0.5697 [mN/m]	surface tension liquid-gas, x2 = 0.7501 [mN/m]
293.14 K	–	1.47e-07	1.37e-07	–	–	–
293.16 K	1.61e-07	–	–	8.46	8.02	7.74
303.16 K	–	1.34e-07	1.28e-07	–	–	–
303.17 K	1.43e-07	–	–	7.17	6.63	6.3
313.12 K	–	1.22e-07	1.14e-07	–	–	–
313.13 K	1.32e-07	–	–	5.93	5.34	4.91
323.13 K	1.23e-07	–	–	4.75	4.15	3.62
323.14 K	–	1.13e-07	1.04e-07	–	–	–
333.14 K	–	1.03e-07	9.75e-08	–	–	–
333.16 K	1.11e-07	–	–	3.62	2.89	2.41
343.11 K	–	9.31e-08	8.96e-08	–	–	–
343.12 K	1.02e-07	–	–	2.54	1.83	1.32
348.17 K	9.63e-08	–	–	2.06	1.34	0.83
348.19 K	–	8.74e-08	8.58e-08	–	–	–

FCF [difluoromethane]
[2]
Settings	kinematic viscosity [m2/s]	surface tension liquid-gas [mN/m]
293.15 K	1.29e-07	7.4
303.15 K	1.17e-07	5.94
313.07 K	1.08e-07	4.35
323.15 K	9.98e-08	2.96
333.14 K	9.3e-08	1.67
343.16 K	7.95e-08	0.57
348.18 K	7.5e-08	0.14
